This note sets out measurements from patent US11964943B2, “3,5-diarylidenyl-n-substituted-piperid-4-one-derived inhibitors of Stat3 pathway activity and uses thereof” (priority 2017, dated 2024).

One data set deals with pStat3^Tyr705. Description: Immunoblotting of phosphorylated Stat3 in cancer cells. It is filed as cell-based, human. As to the method:
(§1) Whole cell lysates were prepared by incubation of harvested, trypsinised cells with CelLytic™ lysis buffer (Sigma-Aldrich) supplemented with 1× protease and 1× phosphatase inhibitors (Roche). Protein quantification was carried out using a protein assay kit (Bio-Rad). 40 μg of the lysates were denatured by heating for 5 min at 95° C. in sample buffer containing 100 mM Tris-Cl (pH 6.8), 4% SDS, 10% 2-mercaptoethanol, 20% glycerol, and 0.02% bromophenol blue. Precision Plus Protein Dual colour standards (Bio-Rad) were used as a molecular weight reference. For the detection of STAT3, pSTAT3, α/β tubulin, cleaved PARP, Bcl-2, Bcl-xL, FANCD2, BRCA1, EME1 and MUS81, proteins were separated on a NuPAGE 7% Tris-acetate gel (Life Technologies) and subsequently transferred to polyvinylidene difluoride membranes (Immobilon®-P transfer membrane; Millipore). […] Membranes were blocked for 1 h at ambient temperature in a blocking buffer containing 5% w/v Bovine Serum Albumin (BSA; Sigma-Aldrich) in 1×TBS, 0.1% Tween-20. All proteins were identified by incubation in a 1:1000 dilution of the respective polyclonal antibodies (Cell signaling) in blocking buffer overnight at 4° C. and subsequent incubation for 1 h with an anti-rabbit or anti-mouse secondary antibody (Cell signalling) at a dilution of 1:1000. The α/β tubulin (1:2000; Cell Signaling) and the anti-phospho-histone H2AX Antibody (1:500; Millipore) were used in the denoted dilutions. Antibody binding was visualized by enhanced chemiluminescence (Amersham) on autoradiography film (Kodak-X-Omat). Alternatively Images were captured by the GelDoc-It Imaging System Fusion Fx7 (Vilber Lourmat, Germany).
as §1, with “Immunoblotting. Whole” for “Whole”, “CelLytic™ M” for “CelLytic™”, “pSTAT3, a/0” for “pSTAT3, α/β”, “in 1×TBS” for “in 1×TBS,”, “(Cell signalling)” for “(Cell signaling)”

Data set [1] deals with HCT116-oxaliplatin resistant cells. In words: MTT growth inhibition and Chou-Talalay combination index with oxaliplatin. It is filed as cell-based. As to conditions: fixed and non-fixed ratio combination treatments, in many instances. On the procedure:
The software Calcusyn was utilized for analysis of drug interactions using the Chou-Talalay combination index method (Chou, T.-C. Drug Combination Studies and Their Synergy Quantification Using the Chou-Talalay Method. [Cancer Res. 70, 440-446 (2010)]
The affected fractions were calculated from the SRB or MTT assay absorbance values and were registered to derive the respective CI values and isobolograms. A CI value of less than 1 (one) indicates synergy.
MIT assay. Individual drug treatments and combinations were carried out as with the SRB assay. The MTT assay was carried out as previously (see Cytotoxicity studies sections) with the difference that it was completed in 96 h.

A further data set relates to B16 (melanoma) cells. In words: MTT cytotoxicity assay, B16 cells. As to conditions: read-out: IC50 (μM) B16; 72 h exposure, MTT, mean of three independent experiments. For orientation: Tetrazolium assays rely on reduction of a dye to a coloured formazan, in cell work by metabolically active cells.
A further data set relates to L1210 (lymphoma) cells. In words: MTT cytotoxicity assay, L1210 cells. The following applies: read-out: IC50 (μM) L1210; 72 h exposure, MTT, mean of three independent experiments.
Data set [2] addresses Stat3 binding to hSIE DNA probe (Homo sapiens, UniProt P40763). Description: Electrophoretic mobility shift assay (EMSA). The following applies: DU145 nuclear extracts.
Method: Binding reactions contained 0.9 μg poly(dI-dC). Competition assays were performed by adding 100× excess cold SIE oligonucleotide (lane C) and non-specific competitor (lane M: FIRE; 5′-[sequence]-3′). The DNA-protein complexes were subjected to electrophoresis and resolved on a 5% non-denaturing polyacrylamide gel (30% acrylamide/Bis solution, Bio-Rad) in 0.5% TBE buffer containing 2.5% glycerol (pH 7.8) at 4° C. for 2 h. Once dried, the radioactive signal of the gel was visualized by exposure to Fuji medical X-ray film.
Binding reactions contained 0.9 μg poly(dI-dC). Competition assays were performed by adding 100× excess cold SIE oligonucleotide (lane C) and non-specific competitor (lane M; FIRE; 5′-[sequence]-3′). The DNA-protein complexes were subjected to electrophoresis and resolved on a 5% non-denaturing polyacrylamide gel (30% acrylamide/Bis solution, Bio-Rad) in 0.5% TBE buffer containing 2.5% glycerol (pH 7.8) at 4° C. for 2 h. Once dried, the radioactive signal of the gel was visualized by exposure to Fuji medical X-ray film.
Data set [3] is described as follows: Aqueous solubility (MultiScreen Solubility Filter Plate, shake-flask based). As to conditions: pH 7.4, room temperature, 5% DMSO, free base.
Method: Aqueous solubility of Compounds of the Invention was measured with a modified version of the MultiScreen Solubility Filter Plate protocol (Millipore). This assay was based on the shake-flask equilibrium method and utilizes UV-Vis spectroscopy to quantify the unknown samples. The assay was conducted at room temperature at pH 7.4. […] Compound of the Invention was dissolved in DMSO, and the final DMSO concentration was 5% (v/v). Each sample was analyzed by UV-Vis spectroscopy at 10 nm increments from 260-600 nm to determine the optimal wavelength for detection and construct standard curves. […] A 4:1 mixture of supernatant to acetonitrile was added to a 96-well acrylic plate and analyzed by UV-Vis spectroscopy.
Aqueous solubility was measured with a modified version of the MultiScreen Solubility Filter Plate protocol (Millipore). This assay is based on the shake-flask equilibrium method and utilizes UV-Vis spectroscopy to quantify the unknown samples. The assay is conducted at room temperature at pH 7.4. […] Each compound was dissolved in DMSO, and the final DMSO concentration was 5% (v/v). Each sample was analyzed by UV-Vis spectroscopy at 10 nm increments from 260-600 nm to determine the optimal wavelength for detection and construct standard curves. […] A 4:1 mixture of supernatant to acetonitrile was added to a 96-well acrylic plate and analyzed by UV-Vis spectroscopy.

Stat3 binding to hSIE DNA probe, sequence (P40763 whole entry): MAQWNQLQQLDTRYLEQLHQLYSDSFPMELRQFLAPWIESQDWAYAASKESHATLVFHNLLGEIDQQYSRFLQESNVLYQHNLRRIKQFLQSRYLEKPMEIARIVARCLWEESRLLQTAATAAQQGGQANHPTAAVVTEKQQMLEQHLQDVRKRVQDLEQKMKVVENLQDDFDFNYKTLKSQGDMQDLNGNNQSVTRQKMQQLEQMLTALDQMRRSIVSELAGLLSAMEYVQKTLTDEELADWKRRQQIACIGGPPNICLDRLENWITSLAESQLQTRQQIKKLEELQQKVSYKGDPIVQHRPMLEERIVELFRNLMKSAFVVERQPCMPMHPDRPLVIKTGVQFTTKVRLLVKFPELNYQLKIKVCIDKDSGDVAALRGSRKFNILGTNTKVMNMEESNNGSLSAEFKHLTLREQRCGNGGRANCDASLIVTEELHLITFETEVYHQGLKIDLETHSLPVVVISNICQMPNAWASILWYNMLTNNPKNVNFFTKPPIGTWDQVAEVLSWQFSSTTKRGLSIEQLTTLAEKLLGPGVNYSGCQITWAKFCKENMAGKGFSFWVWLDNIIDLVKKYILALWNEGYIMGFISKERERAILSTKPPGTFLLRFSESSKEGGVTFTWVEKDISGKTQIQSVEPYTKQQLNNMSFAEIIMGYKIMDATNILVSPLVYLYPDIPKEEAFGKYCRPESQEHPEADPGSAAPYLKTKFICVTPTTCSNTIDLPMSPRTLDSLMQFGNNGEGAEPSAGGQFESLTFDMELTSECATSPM

Take “3,5-Di(3,4,5-trimethoxybenzylidene)-1-phenylpiperidin-4-one [IE-8]”: in the data set with pStat3^Tyr705 (DU145 and A549, after 18 h treatment and drug removal), the “persistence of pStat3 inhibition post treatment” value was “at least 24 h”. Besides, in the data set with pStat3^Tyr705 (DU145 and A549 cells with constitutively active Stat3, 18 h), the “inhibition of Stat3 tyrosine (705) phosphorylation (pStat3)” value is recorded as “efficiently inhibits”. In the data set on pStat3^Tyr705 (cells with persistent Stat3 activation, 18 h), the “concentrations at which pSTAT3 is inhibited” value is over 1 μM. In data set [1], the “CI values in combination with oxaliplatin” value was under 1. Besides, the IC50 in the data set with B16 (melanoma) cells and with L1210 (lymphoma) cells was about 0.3 µM in each case. Also, the “concentration blocking Stat3-DNA binding activity” value in data set [2] is at least 0.8 µM. Besides, the “Solubility in aqueous buffer” value in data set [3] was 200 ± 30 µM.
